From US12331042B2, “Compounds suitable for the treatment and prophylaxis of muscle wasting and other conditions” (priority 2019, dated 2025)
Entries after “also recorded” stand apart in the source; their conditions may differ.

Legend:
[1] = test system: MAFbx, MuRF1, CARP, BAX, eIF2B-delta expression; experiment: Western blot analysis of TA muscle, MCT mice; assay type: in vivo
Text: The Western blot analyses consisted of frozen TA muscle samples being homogenized in RIPA buffer (50 mmol/L Tris, 150 mmol/L sodium chloride, 1 mmol/L EDTA, 1% NP-40, 0.25% sodium-deoxycholate, 0.1% SDS, 1% Triton X-100; pH 7.4) or relax buffer (90 mmol/L HEPES, 126 mmol/L potassium chloride, 1 mmol/L MgCl, 50 mmol/L EGTA, 8 mmol/L ATP, 10 mmol/1 Creatinephosphate; pH 7.4) containing a protease inhibitor mix (Inhibitor mix M, Serva, Heidelberg, Germany), sonicated, and centrifuged at 16,000×g for 5 min. Protein concentration of the supernatant was determined (BCA assay, Pierce, Bonn, Germany) and aliquots (5-20 μg) were separated by SDS-polyacrylamide gel electrophoresis. Proteins were transferred to a polyvinylidene fluoride membrane (PVDF) and incubated overnight at 4° C. with the following primary antibodies: MAFbx ( 1/2000, Eurogentec, Seraing, Belgium), MuRF1 ( 1/1000, Myomedix Ltd., Neckargemünd, Germany), CARP ( 1/500, Myomedix Ltd., Neckargemünd, Germany), BAX ( 1/1000; Abcam, Cambridge, UK), and eIF2B-delta ( 1/200; Santa Cruz Biotechnolgy, Santa Cruz, USA). Membranes were subsequently incubated with a horseradish peroxidase-conjugated secondary antibody and specific bands visualized by enzymatic chemiluminescence (Super Signal West Pico, Thermo Fisher Scientific Inc., Bonn, Germany) and densitometry quantified using a 1D scan software package (Scanalytics Inc., Rockville, USA). Blots were then normalized to the loading control GAPDH ( 1/30000; HyTest Ltd, Turku, Finland). All data are presented as fold change relative to sham.

[2] = test system: citrate synthase, succinate dehydrogenase, mitochondrial complex I, cytoplasmic enzymes; experiment: Enzyme activity measurements in diaphragm tissue, CHF mice; assay type: in vivo; conditions: CHF+compound
Experimental: Diaphragmatic tissue was homogenized in relaxing buffer, and aliquots were used for enzyme activity measurements. Enzyme activities for lactate dehydrogenase (EC 1.1.1.27), pyruvate kinase (EC 2.7.1.40), succinate dehydrogenase (SDH, EC 1.3.5.1), citrate synthase (CS, EC 2.3.3.1), β-hydroxyacyl-COA dehydrogenase (EC 1.1.1.35), and mitochondrial complex I were measured spectrophotometrically as previously described in detail (Mukherjee et al., J Biol Chem, 1976, 251, 2155-2160; Vanderlinde et al., Ann Clin Lab Sci, 1985, 15, 13-31; Dzeja et al., Mol Cell Biochem, 1999, 201, 33-40; Takashi et al., Biochim Biohphys Acta, 1979, 574, 258-267; Schwarzer et al., J Physiol, 2014, 592, 3767-3782). Enzyme activity data are presented as the fold change relative to sham.

[3] = test system: C57/BL6 mice with LAD ligation (CHF); experiment: Myocardial infarction LAD mouse model (CHF, HFrEF); assay type: in vivo; conditions: 0.1% compound in chow
Experimental: A myocardial infarction mouse model suffering from a heart failure with reduced ejection fraction (HFrEF) was generated by ligating the left anterior […] coronary artery (LAD) as described below to induce an acute myocardial infarction (MI) followed by the development of a chronic (systolic) heart failure (CHF).
A small animal surgery was carried out on C57/BL6 mice at 12 weeks of age in the Leipzig Heart Center following established and well known procedures in the field (see for example Bowen et al., J Appl Physiol, 2015, 118, 11-19; Mangner et al., J Cachexia Sarcopenia Muscle, 2015, 6, 381-390). Briefly, mice from the LAD group were anesthetized by i.p. injection of MMF; Medetomidin (0.5 mg/kg body weight), Midazolam (5.0 mg/kg body weight), Fentanyl (0.05 mg/kg body weight). Unconscious mice were fixed on an operation table. Ventral parts of the thorax were shaved, washed and sterilized. Unconscious mice were then intubated and ventilated with normal room air, using an animal respirator (TSE GmbH, Siemensstr. 21, 61352 Bad Homburg; product: http://tinateb.com/wp-content/uploads/2016/06/TSE_Respirator-Compact_20080724_HR.pdf). For LAD operation, the thorax was opened about 1 cm above the Processus xiphoideus and about 1 cm left parasternally by dissecting the skin here. The below located M. pectoralis was moved to the sides without further injury to access the thorax wall. The intercostal muscles between two ribs were moved to the side without breaking the ribs. The thereby created intrathoracic access was widened by a surgical spreader inserted above the pericardium. The pericardium was opened surgically stump by using two anatomical forceps. The thymus, if present in the surgical field, was pushed to the side with a surgical swab to gain access to the aortic root. The heart was carefully moved out of the pericardium using a hook, and the left atrium was put to the side with a surgical swab. The LAD was then ligated with a 5.0 Prolene suture (Ethicon, see http://www.ethicon.com/healthcare-professionals/products/wound-closure/non-absorbable-sutures/prolene-polypropylene). The ligation was made close to the aortic root, and the suture was tightened until paleness of the coronary artery anterior wall was noted. After ligation, the thorax wall and then the skin were closed by a single button seam using a 4.0 Prolene suture (company: Ethicon).
As a control, sham operations were performed. For the sham control group, the procedure followed was exactly the same as described above, except that the 5.0 prolene suture was only loosely out around the LAD without tightening.
The operation is ended by extubation, and antagonizing the anesthesia by i.p. injection of Atipamezol (2.5 mg/kg body weight) and Flumazenil (0.5 mg/kg body weight). Mice were put onto a warming mate until waking up, and then were transferred back to animal cages. The time for the whole procedure above by expert staff was around 30 min.
One week after LAD ligation, echocardiography was performed in M-mode to confirm MI, i.e. the left ventricular end-diastolic (LVEDD) and systolic (LVESD) diameters were assessed to allow calculation of left ventricular (LV) fractional shortening (LVFS=[LVEDD_LVESDLVEDD]×100). Only mice with a large infarct (left ventricular ejection fraction (LVEF)<20%) were subsequently randomized into two groups, i.e. one group receiving normal chow (CHF, n=11) and a second group receiving chow supplemented with compound (0.1% of compound MyoMed-946, CHF+MyoMed-946, n=12). Sham operated animals received only normal chow (n=15). Nine weeks later, echocardiography was performed again.
The animals were sacrificed to collect tissues, in particular diaphragm tissue, for functional and molecular characterization. All experiments and procedures were approved by the local Animal Research Council, University of Leipzig, and the Landesbehörde Sachsen (TVV 36/15).

[4] = Storage stability at room temperature (NMR, LC-MS); assay type: physicochemical; conditions: several months storage at room temperature; confirmed via NMR and LC-MS
Text: [2-(2-Furylmethylcarbamoylamino)-2-oxo-ethyl]

[5] = after 10 weeks of intervention, n = 12
[6] = after 10 weeks, echocardiography

Cc1cc(=O)oc2cc(OCc3ccc(C(=O)OCC(=O)NC(=O)NCc4ccco4)cc3)ccc12 [MyoMed-946, [2-(2-furylmethylcarbamoylamino)-2-oxo-ethyl] 4-[(4-methyl-2-oxo-chromen-7-yl)oxymethyl]benzoate]
increase in CARP expression ([1]; MCT+compound vs MCT): attenuated; also recorded: abolished | increased protein expression of MuRF1 ([1]; MCT+compound vs MCT): attenuated; also recorded: prevented | protein expression of MAFBx ([1]; MCT+compound vs MCT): No changes are detected; also recorded: no effects were observed | expression of eIF2B (delta subunit) ([1]; MCT+compound vs MCT, confirmed by immunoblotting): upregulation | expression of BAX ([1]; MCT+compound, upregulated in MCT vs sham): normalized | citrate synthase enzyme activity ([2]; reduced by 21% in CHF vs sham): attenuated; also recorded: partially improved | mitochondrial complex I enzyme activity ([2]; reduced by 27% in CHF vs sham): attenuated; also recorded: partially improved | succinate dehydrogenase enzyme activity ([2]; reduced by 28% in CHF vs sham): attenuated; also recorded: partially improved | LV infarct size ([3]; after 10 weeks of intervention, histology): 27.1 ± 2.9% | Heart-to-body weight [3, 5]: 7.52 ± 0.57 mg/g | Lung weight (wet/dry) [3, 5]: 4.47 ± 0.10 | LVEDD [3, 6]: 5.9 ± 0.2 mm | LVEF [3, 6]: 21.1 ± 2.5 % | LVESD [3, 6]: 5.3 ± 0.2 mm | LVFS [3, 6]: 9.9 ± 1.2 % | decay on storage [4]: no trace of decay
